Test in all cases: Test A preemergence
Common to all, as to assay type: in vivo

One test deals with Kochia (Kochia scoparia). The settings on record: Bassia scoparia, pre-emergence, 240 h; for pest or weed control at 125 g/ha: 125 g ai/ha; for pest or weed control at 500 g/ha: 500 g ai/ha. In a few lines: (§1)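 Each rating is a visual injury score from 0 to 100 given about 10 d after treatment, judged against untreated controls kept alongside in the greenhouse. In loam soil–sand blend, seeds got a preemergence directed soil spray, while postemergence plants were 2 to 10 cm tall at spraying.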

The test system of test [1] is barnyardgrass (Echinochloa crus-galli). Particulars: Echinochloa crus-galli, pre-emergence, 240 h; for pest or weed control at 125 g/ha: 125 g ai/ha; for pest or weed control at 500 g/ha: 500 g ai/ha. In a few lines: as §1
For test [2], the system named is pigweed (Amaranthus retroflexus). The settings on record: Amaranthus retroflexus, pre-emergence, 240 h; for pest or weed control at 125 g/ha: 125 g ai/ha; for pest or weed control at 500 g/ha: 500 g ai/ha.
For test [3], the system named is ragweed (common ragweed, Ambrosia elatior). Particulars: Ambrosia artemisiifolia, pre-emergence, 240 h; for pest or weed control at 125 g/ha: 125 g ai/ha; for pest or weed control at 500 g/ha: 500 g ai/ha. In a few lines: as §1
The subject of test [4] is ryegrass, Italian (Italian ryegrass, Lolium multiflorum). Particulars: Lolium multiflorum, pre-emergence, 240 h; for pest or weed control at 125 g/ha: 125 g ai/ha; for pest or weed control at 500 g/ha: 500 g ai/ha. In a few lines:
as §1

[5] abbreviates: preemergence, 0 to 100 scale where 0 is no effect and 100 is complete control, read-out: Kochia plant response rating.
[6] abbreviates: Preemergence, visual injury vs untreated controls after approximately 10 d, read-out: Kochia plant response rating (0 to 100 scale where 0 is no effect and 100 is complete control).
Where [7] appears, read: preemergence, 0 to 100 scale where 0 is no effect and 100 is complete control, read-out: Barnyardgrass plant response rating.
[8] abbreviates: Preemergence, visual injury vs untreated controls after approximately 10 d, read-out: Barnyardgrass plant response rating (0 to 100 scale where 0 is no effect and 100 is complete control).
Where [9] appears, read: preemergence, 0 to 100 scale where 0 is no effect and 100 is complete control, read-out: Pigweed plant response rating.
Setting [10] is: Preemergence, visual injury vs untreated controls after approximately 10 d, read-out: Pigweed plant response rating (0 to 100 scale where 0 is no effect and 100 is complete control).
Setting [11] is: preemergence, 0 to 100 scale where 0 is no effect and 100 is complete control, read-out: Ragweed plant response rating.
The mark [12] stands for this setting: Preemergence, visual injury vs untreated controls after approximately 10 d, read-out: Ragweed plant response rating (0 to 100 scale where 0 is no effect and 100 is complete control).
Setting [13] is: preemergence, 0 to 100 scale where 0 is no effect and 100 is complete control, read-out: Ryegrass, Italian plant response rating.
The mark [14] stands for this setting: Preemergence, visual injury vs untreated controls after approximately 10 d, read-out: Ryegrass, Italian plant response rating (0 to 100 scale where 0 is no effect and 100 is complete control).
Where [15] appears, read: preemergence, 0 to 100 scale where 0 is no effect and 100 is complete control, approx. 10 d, read-out: Kochia plant response rating.
[16] abbreviates: preemergence, visual injury rating about 10 d after treatment, 0 to 100 scale (0 no effect, 100 complete control), read-out: Kochia plant response rating.
Setting [17] is: preemergence, 0 to 100 scale where 0 is no effect and 100 is complete control, approx. 10 d, read-out: Barnyardgrass plant response rating.
The mark [18] stands for this setting: preemergence, visual injury rating about 10 d after treatment, 0 to 100 scale (0 no effect, 100 complete control), read-out: Barnyardgrass plant response rating.
[19] abbreviates: preemergence, 0 to 100 scale where 0 is no effect and 100 is complete control, approx. 10 d, read-out: Pigweed plant response rating.
The mark [20] stands for this setting: preemergence, visual injury rating about 10 d after treatment, 0 to 100 scale (0 no effect, 100 complete control), read-out: Pigweed plant response rating.
The mark [21] stands for this setting: preemergence, 0 to 100 scale where 0 is no effect and 100 is complete control, approx. 10 d, read-out: Ragweed plant response rating.
Where [22] appears, read: preemergence, visual injury rating about 10 d after treatment, 0 to 100 scale (0 no effect, 100 complete control), read-out: Ragweed plant response rating.
Where [23] appears, read: preemergence, 0 to 100 scale where 0 is no effect and 100 is complete control, approx. 10 d, read-out: Ryegrass, Italian plant response rating.
[24] abbreviates: preemergence, visual injury rating about 10 d after treatment, 0 to 100 scale (0 no effect, 100 complete control), read-out: Ryegrass, Italian plant response rating.
The mark [25] stands for this setting: Preemergence, visual injury rating after approximately 10 d, read-out: Kochia plant response rating (0 to 100 scale, 0 is no effect, 100 is complete control).
[26] abbreviates: Preemergence, visual injury rating after approximately 10 d, read-out: Barnyardgrass plant response rating (0 to 100 scale, 0 is no effect, 100 is complete control).
[27] abbreviates: Preemergence, visual injury rating after approximately 10 d, read-out: Pigweed plant response rating (0 to 100 scale, 0 is no effect, 100 is complete control).
The mark [28] stands for this setting: Preemergence, visual injury rating after approximately 10 d, read-out: Ragweed plant response rating (0 to 100 scale, 0 is no effect, 100 is complete control).
Setting [29] is: Preemergence, visual injury rating after approximately 10 d, read-out: Ryegrass, Italian plant response rating (0 to 100 scale, 0 is no effect, 100 is complete control).

Like-named read-outs stand apart in the source and are kept apart here.

In the case of `CN1C[C@H](c2cccc(F)c2)[C@@H](C(=O)Nc2ccccc2C(F)(F)F)C1=O` [Compound 823], the pest or weed control at 125 g/ha worked out at 0% with Kochia (Kochia scoparia) (setting [5]); 90% in test [1] (setting [7]); 0% in test [2] (setting [9]); 0% in test [3] (setting [11]); 30% in test [4] (setting [13]). Besides, the pest or weed control at 500 g/ha was 70% in the test on Kochia (Kochia scoparia) (setting [6]); 100% in test [1] (setting [8]); 50% in test [2] (setting [10]); 40% in test [3] (setting [12]); 60% in test [4] (setting [14]).
In the case of `CN1C[C@H](c2cc(F)cc(F)c2)[C@@H](C(=O)Nc2ncccc2Cl)C1=O` [Compound 1097], the pest or weed control at 125 g/ha (with Kochia (Kochia scoparia) (setting [15]); in test [1] (setting [17]); in test [2] (setting [19]); in test [3] (setting [21]); in test [4] (setting [23])) was 0% in each case. The pest or weed control at 500 g/ha (in the test on Kochia (Kochia scoparia) (setting [16]); in test [1] (setting [18]); in test [2] (setting [20]); in test [3] (setting [22]); in test [4] (setting [24])) was 0% in each case.
For `COc1ccccc1NC(=O)[C@H]1C(=O)N(C)C[C@@H]1c1ccc(C(F)(F)F)cc1` [Compound 843], the pest or weed control at 125 g/ha was 60% in the test on Kochia (Kochia scoparia) (setting [5]); 60% in test [1] (setting [7]); 0% in test [2] (setting [9]); 0% in test [3] (setting [11]); 0% in test [4] (setting [13]). Also, the pest or weed control at 500 g/ha with Kochia (Kochia scoparia) (setting [6]) amounted to 70%; in test [1] (setting [8]) it was 80%; in test [2] (setting [10]) it was 40%; in test [3] (setting [12]), 30%; in test [4] (setting [14]), 50%.
Turning to `CSc1ccccc1NC(=O)[C@H]1C(=O)N(C)C[C@@H]1c1cc(F)c(F)c(F)c1` [Compound 866], the pest or weed control at 125 g/ha in the test on Kochia (Kochia scoparia) (setting [5]) worked out at 20%; in test [1] (setting [7]) it was 30%; in test [2] (setting [9]), 0%; in test [3] (setting [11]), 0%; in test [4] (setting [13]), 50%. In addition, the pest or weed control at 500 g/ha in the test with Kochia (Kochia scoparia) (setting [6]) turned out to be 80%; in test [1] (setting [8]), 90%; in test [2] (setting [10]), 50%; in test [3] (setting [12]) it was 30%; in test [4] (setting [14]), 70%.
Take `Cc1cc([C@H]2CN(C)C(=O)[C@@H]2C(=O)Nc2ccccc2F)ccc1Br` [Compound 1098]: the pest or weed control at 125 g/ha in the test on Kochia (Kochia scoparia) (setting [15]) stood at 20%; in test [1] (setting [17]), 90%; in test [2] (setting [19]), 0%; in test [3] (setting [21]), 0%; in test [4] (setting [23]), 20%. In addition, the pest or weed control at 500 g/ha with Kochia (Kochia scoparia) (setting [16]) was 70%; in test [1] (setting [18]) it was 90%; in test [2] (setting [20]) it was 0%; in test [3] (setting [22]), 0%; in test [4] (setting [24]), 50%.
Turning to `Cc1c(F)cccc1NC(=O)[C@H]1C(=O)N(C)C[C@@H]1c1cccc(COC(F)F)c1` [Compound 874], the pest or weed control at 125 g/ha with Kochia (Kochia scoparia) (setting [5]) stood at 60%; in test [1] (setting [7]), 90%; in test [2] (setting [9]), 20%; in test [3] (setting [11]), 20%; in test [4] (setting [13]) it was 40%. Also, the pest or weed control at 500 g/ha in the test with Kochia (Kochia scoparia) (setting [6]) came out at 90%; in test [1] (setting [8]), 100%; in test [2] (setting [10]) it was 30%; in test [3] (setting [12]), 60%; in test [4] (setting [14]) it was 50%.
On to `O=C1NC[C@H](c2ccc(F)c(OC(F)(F)C(F)(F)Br)c2)[C@H]1C(=O)Nc1cccc(F)c1F` (racemic) [Compound 914], for which the pest or weed control at 125 g/ha with Kochia (Kochia scoparia) (setting [5]) was 60%; in test [1] (setting [7]), 70%; in test [2] (setting [9]), 90%; in test [3] (setting [11]) it was 0%; in test [4] (setting [13]), 0%. For the same compound, the pest or weed control at 500 g/ha in the test on Kochia (Kochia scoparia) (setting [6]) was 60%; in test [1] (setting [8]), 90%; in test [2] (setting [10]), 90%; in test [3] (setting [12]), 0%; in test [4] (setting [14]) it was 60%.
Take `CC(=O)Oc1ccc(F)c(NC(=O)[C@H]2C(=O)N(C)C[C@@H]2c2cc(F)cc(F)c2)c1` [Compound 1019]: the pest or weed control at 125 g/ha (in the test on Kochia (Kochia scoparia) (setting [25]); in test [1] (setting [26]); in test [2] (setting [27]); in test [3] (setting [28]); in test [4] (setting [29])) was 0% each time. In addition, the pest or weed control at 500 g/ha (with Kochia (Kochia scoparia) (setting [16]); in test [1] (setting [18]); in test [2] (setting [20]); in test [3] (setting [22]); in test [4] (setting [24])) was 0% in each case.
Regarding `Cc1cc([C@H]2CNC(=O)[C@@H]2C(=O)Nc2ccccc2S(C)(=O)=O)ccc1C(F)(F)F` [Compound 1041], the pest or weed control at 125 g/ha in the test with Kochia (Kochia scoparia) (setting [25]) came out at 30%; in test [1] (setting [26]) it was 30%; in test [2] (setting [27]), 0%; in test [3] (setting [28]) it was 20%; in test [4] (setting [29]), 0%. Also, the pest or weed control at 500 g/ha in test [1] (setting [18]) turned out to be 60%; in test [2] (setting [20]) it was 20%; in test [4] (setting [24]), 0%.
Take `Cc1cc(F)cc([C@H]2CN(C)C(=O)[C@@H]2C(=O)Nc2ccccc2F)c1` [Compound 850]: the pest or weed control at 125 g/ha in the test on Kochia (Kochia scoparia) (setting [5]) stood at 30%; in test [1] (setting [7]), 90%; in test [2] (setting [9]), 20%; in test [3] (setting [11]), 0%; in test [4] (setting [13]), 70%. Also, the pest or weed control at 500 g/ha in the test on Kochia (Kochia scoparia) (setting [6]) was found to be 70%; in test [1] (setting [8]), 90%; in test [2] (setting [10]), 30%; in test [3] (setting [12]), 0%; in test [4] (setting [14]), 70%.
